Data as given in EP3492066A1, “COSMETIC PREPARATIONS HAVING A CALMING EFFECT” (Beiersdorf AG, priority 2010, dated 2012).

How the values were obtained:
[1] = system: Probandinnen; assay: Olfactometer test with psychophysiological measurement (blood volume pulse amplitude, heart rate) versus placebo; format: in vivo, Menschen; conditions: for Blutvolumenpuls Amplitude: gegenüber der Placebokontrolle (Propylenglykol), 5 min fragrance by olfactometer; for Blutvolumenpuls Amplitude (Abbildung 1): 0,025% Tetrahydro-6-pentyl-2H-pyran-2-one (N=9), 0,075% 2,6-Dimethyl-7-octen-2-ol (N=10), gegenüber Placebokontrolle Propylenglycol (N=10); for Änderung der Herzrate: normalised
Source text: Es wurde in weiteren Tests die beruhigende Wirkung der Duftstoffe 6-Methyl-5-Hepten-2-one, Octan-2-one, Heptan-2-one, Nonan-2-one, 5-hexyldihydro-5-methyl-2(3H)-furanone, Tetrahydro-6-pentyl-2H-pyran-2-one, Octanal und 2,6-Dimethyl-7-octen-2-ol auf den Menschen untersucht. Dazu wurde ein Testdesign gewählt, bei dem mit Hilfe eines Olfaktometers (Burghart) kosmetisch einsetzbare und kommerziell erhältliche Duftstoffe an die Nase des Probanden gebracht wurden. Die Duftstoffe wurden in Propylenglykol (Caelo) gelöst. Als Placebokontrolle wurde entsprechend ebenfalls Propylenglykol eingesetzt
Die Probandinnen wurden in einer bequemen, leicht nach hinten gelehnten Haltung auf einem Sessel platziert. Das Ende des Olfaktometerschlauches wurde im Abstand von etwa 10 cm vor der Nase des Probanden platziert und mit Hilfe eines Stativs fixiert. Der Versuchsaufbau (Nexus, Olfaktometer) wurde von den Probandinnen mit Hilfe einer spanischen Wand abgeschirmt, um die Teilnehmerinnen nicht durch das Messgeschehen abzulenken. Die Messungen fanden in einem hellen, gut gelüfteten, auf 21°C temperierten Raum statt.
An den Untersuchungen nahmen Probandinnen im Alter von 20 bis 40 Jahren teil. Das Durchschnittsalter betrug 31 Jahre. Die Probandinnen besaßen einen BMI zwischen 19 und 25. Die Probandinnen wurden gebeten, einen Tag vor Studienbeginn auf Parfum und Body Lotion zu verzichten. Am Messtag selbst durften die Teilnehmerinnen weder Parfum, noch parfümierte Deoprodukte, Body Lotions, Gesichtscreme, Handcreme und Haarspray benutzen. Sie mussten auf Kaffee, Schwarztee, Fruchtsäfte und Zigaretten verzichten und durften 30 min vor Testbeginn nichts mehr essen und ausschließlich Wasser trinken.
Die Einstellungen am Olfaktometer sahen einen Luftstrom von 4 L/min vor. Die externe Druckluft betrug 2 bar. Die Probandinnen wurden mit den entsprechenden Messelektroden bestückt und akklimatisierten zunächst für 1 min. Diese Zeit wurde gleichzeitig genutzt, um sicherzustellen, dass sich die Elektroden zur Bestimmung psychophysiologischer Parameter in einem schwankungsfreien und messbereiten Zustand befinden. Alle Probandinnen erhielten im Anschluss für 5 min Kontrollluft ohne Duft. Während dieser Zeit sollten alle Probandinnen einen emotional neutralen Zustand erreichen. Anschließend erhielten die Probandinnen für 5 min einen Duftstoff, der so niedrig konzentriert war, dass er nicht unangenehm oder gar stechend empfunden wurde. Alle Duftstoffe wurden in Propylenglykol gelöst. Als Placebokontrolle diente ebenfalls Propylenglykol. Während der gesamten 10 min wurden die psychophysiologischen Messparameter dermale Aktivität, Herzrate und Blutvolumenpuls mit Hilfe des Messgeräts NeXus und der Software Biotrace (Mind Media B.V.) erfasst. Die Differenz zwischen maximalem und minimalem Blutvolumen innerhalb eines Herzzyklus nennt man Blutvolumenpuls Amplitude. Dieser Wert sinkt bei psychischer Belastung ab. Umgekehrt kann ein Anstieg als Entspannungsreaktion interpretiert werden.
Um eine gute Vergleichbarkeit der Messdaten der verschiedenen Testgruppen gewährleisten zu können, wurden die Rohdaten der Messung normiert. Dafür wurde der Mittelwert der BVP Amplitude 1 min vor Duftapplikation von allen anderen Messwerten abgezogen. Die Summe der Differenzen ergibt die Änderung der BVP Amplitude in µV.

[2] = system: Probandinnen; assay: Short stress test (unpleasant pictures, loud drum rhythm) with Self-Assessment Manikin (SAM) rating of nervousness; format: in vivo, Menschen; conditions: im Mittel, compared with Placebo-behandelte Probandinnen
Method: Zur Ergänzung der zuvor ermittelten Daten wurde mit den Probandinnen ein kurzer Stresstest durchgeführt, bei dem sie nach einer Anfangsentspannung für 1 min einer schnellen Folge von unangenehmen Bildern (Spinnen, Feuer, etc.) auf einem Fernsehbildschirm ausgesetzt wurden. Die visuellen Reize wurden von einem lauten Trommelrhythmus begleitet. Vor und nach dem Stresstest wurden die Probandinnen gebeten, mit Hilfe eines Self-Assessment Manikins (SAM), [formula] ihre eigene Nervosität zu bewerten.
Beispielhaft sind in Abbildung 2 die Werte des SAM-Fragebogens für Nervosität für 2,6-Dimethyl-7-octen-2-ol und Tetrahydro-6-pentyl-2H-pyran-2-one dargestellt. Abbildung 2 zeigt die Angaben der Probandinnen zu ihrer Nervosität vor und nach dem Stresstest als Differenz (nachher minus vorher).

Row | SMILES | Blutvolumenpuls Amplitude [1] | Stress-vermittelte Änderung der Nervosität (SAM) [2] | further results
1 | CCCCCCC(C)=O [Octan-2-one] | Beruhigungs- bzw. Entspannungsreaktion | geringeren Stress-vermittelten Änderung der Nervosität | 
2 | CCCCCCCC=O [Octanal] | Beruhigungs- bzw. Entspannungsreaktion | geringeren Stress-vermittelten Änderung der Nervosität | 
3 | CCCCCCC1(C)CCC(=O)O1 (stereo not shown) [5-hexyldihydro-5-methyl-2(3H)-furanone] | Beruhigungs- bzw. Entspannungsreaktion | geringeren Stress-vermittelten Änderung der Nervosität | 
4 | CCCCCC1CCCC(=O)O1 (stereo not shown) [Tetrahydro-6-pentyl-2H-pyran-2-one] | Anstieg | geringeren Stress-vermittelten Änderung der Nervosität | Blutvolumenpuls Amplitude (Abbildung 1) [1]: Anstieg; Änderung der Herzrate ([1]; Duftphase, Zeit 300 s, 0,025% in Propylenglykol): -2,51 bpm; Änderung der Herzrate ([1]; Duftphase, Zeit 315 s, 0,025% in Propylenglykol): -3,27 bpm; Änderung der Herzrate ([1]; Duftphase, Zeit 330 s, 0,025% in Propylenglykol): -2,71 bpm; Änderung der Herzrate ([1]; Duftphase, Zeit 435 s, 0,025% in Propylenglykol): -1,94 bpm; Änderung der Herzrate ([1]; Duftphase, Zeit 540 s, 0,025% in Propylenglykol): -2,91 bpm; Änderung der Herzrate ([1]; Duftphase, Zeit 585 s, 0,025% in Propylenglykol): -2,44 bpm; Änderung der Herzrate ([1]; Kontrollluft (before fragrance application), Zeit 30 s, 0,025% group): -1,26 bpm; Änderung der Herzrate ([1]; Kontrollluft (before fragrance application), Zeit 90 s, 0,025% group): -1,26 bpm; Änderung der Herzrate ([1]; Kontrollluft (before fragrance application), Zeit 135 s, 0,025% group): -1,65 bpm; Änderung der Herzrate ([1]; Kontrollluft (before fragrance application), Zeit 180 s, 0,025% group): -2,16 bpm; Änderung der Herzrate ([1]; Kontrollluft (before fragrance application), Zeit 225 s, 0,025% group): -0,63 bpm; Änderung der Herzrate ([1]; Kontrollluft (before fragrance application), Zeit 285 s, 0,025% group): -0,02 bpm; Herzrate ([1]; result in words, im Vergleich zur Placebokontrolle, after fragrance application): Senkung der Herzrate
5 | C=CC(C)CCCC(C)(C)O (stereo not shown) [2,6-Dimethyl-7-octen-2-ol] | Anstieg | geringeren Stress-vermittelten Änderung der Nervosität | Blutvolumenpuls Amplitude (Abbildung 1) [1]: Anstieg
6 | CC(=O)CCC=C(C)C [6-Methyl-5-Hepten-2-one] | Beruhigungs- bzw. Entspannungsreaktion | geringeren Stress-vermittelten Änderung der Nervosität | 
7 | CCCCCC(C)=O [Heptan-2-one] | Beruhigungs- bzw. Entspannungsreaktion | geringeren Stress-vermittelten Änderung der Nervosität | 
8 | CCCCCCCC(C)=O [Nonan-2-one] | Beruhigungs- bzw. Entspannungsreaktion | geringeren Stress-vermittelten Änderung der Nervosität | 
